The source of these data is patent publication US9241488B2, “Azole derivative, method for producing azole derivative, and intermediate compound” (KUREHA CORPORATION, priority 2011, dated 2016).

For data set [1], the system named is wheat. Briefly: Growth inhibition test for wheat caused by seed treatment (pot test). The settings on record: 2 mg compound per 1 g wheat seeds, 36 days after seeding, larger index = smaller damage.
Procedure: Harmful effect (growth inhibition) to wheat was evaluated by performing a pot test. Compounds (2 mg) of the present invention and a comparative compound (2 mg) were weighed, and those compounds were each dissolved in DMSO (18 μl). Chemical thus prepared were applied to wheat seeds (1 g) in a vial, and eight wheat seeds were seeded in a pot of 80 cm^2. The seeds were cultivated in a greenhouse with supplying water underneath. 36 days after the seeding, damage (growth inhibition) was evaluated.
The damage (growth inhibition) index was calculated on the basis of the following table. As the growth inhibition index becomes larger, the damage of growth inhibition caused by the treatment of the chemicals becomes smaller.
In data set [2] the test system is Rice bacterial seeding blight (Rhizopus oryzae). Briefly: Anti-bacterial effect on various microorganisms (plate medium), R.o. In kind it is cell-based.
In data set [3] the test system is Wheat pink snow mold (Microdochium nivale). Briefly: Anti-bacterial effect on various microorganisms (plate medium), M.n. In kind it is cell-based.
The subject of data set [4] is wheat leaf blight-causing microorganisms. Briefly: Anti-bacterial effect on wheat leaf blight-causing microorganisms (PDA plate, mycelial growth inhibition). The conditions noted are these: 1.25 mg/L in PDA plate medium, 25° C., 14 days; for inhibition at 1.25 µg/mL: 336 h, read-out: Growth inhibition grade. In kind it is cell-based, Septoria tritici.
The subject of data set [5] is wheat. Briefly: Harmful effect of necrosis to wheat caused by seed treatment (pot test). In kind it is in vivo. The conditions noted are these: 2 mg compound per 1 g wheat seeds, 31 days after seeding, smaller index = smaller harmful effect. As for the experimental part:
Thirty one days after the seeding, a degree of necrosis (necrosis area ratio) in wheat was evaluated. By using criteria shown in Table 7, necrosis indexes were calculated on the basis of the necrosis area ratio.

In data set [6] the test system is wheat brown rust-causing microorganisms. Briefly: Controlling effect on wheat brown rust caused by seed treatment (pot test). It counts as in vivo, Puccinia recondita. The settings on record: 2 mg compound per 1 g wheat seeds, inoculated 21 days after seeding, evaluated 14 days after inoculation. On the procedure:
An efficacy against wheat brown rust was evaluated by performing a pot test. […] The pots were kept in a greenhouse with supplying water underneath. Twenty one days after the seeding, wheat brown rust-causing microorganisms was inoculated, and the pots were stored in a humidity chamber for 2 days. The pots were kept again in a greenhouse with supplying water underneath. Fourteen days after the inoculation, a lesion degree was evaluated, and a protective value was calculated. The protective value was calculated with use of the following formula, and was defined as a wheat brown rust protective value. Protective value=(1−lesion degree in treated plot/lesion degree in untreated plot)×100(%)

The test system of data set [7] is wheat-brown-rust-causing microorganisms. Briefly: Controlling effect on wheat brown rust (spray, pot test). It counts as in vivo, Puccinia recondita. The settings on record: 1 mg/L sprayed at 1,000 L/ha, wheat NORIN No. 61, 9 to 14 days after inoculation. An outline of the steps: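 Two-leaf wheat (NORIN No. 61) sprayed with formulation at 1 mg/L, 1,000 L/ha, then spray-inoculated with rust spores and held 48 hours at 25° C, high humidity, then greenhouse.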

Data set [8] has as its system Sclerotinia rot (Sclerotinia sclerotiorum). Briefly: Anti-bacterial effect on various microorganisms (plate medium), S.s. It counts as cell-based.
In data set [9] the test system is Cucumber fusarium wilt (Fusarium oxysporum). Briefly: Anti-bacterial effect on various microorganisms (plate medium), F.c. In kind it is cell-based.
The subject of data set [10] is Alternaria blotch (Alternaria alternata). Briefly: Anti-bacterial effect on various microorganisms (plate medium), A.m. It counts as cell-based.
In data set [11] the test system is Wheat eye spot (Pseudocercoporella herpotrichoides). Briefly: Anti-bacterial effect on various microorganisms (plate medium), P.h. In kind it is cell-based.
Data set [12] concerns Wheat fusarium blight (Fusarium graminearum). In kind it is cell-based.
The test system of data set [13] is Barley loose smut (Ustilago nuda). Briefly: Anti-bacterial effect on various microorganisms (plate medium), U.n. In kind it is cell-based.
Data set [14] deals with Barley leaf blotch (Rhynchosporium secalis). Briefly: Anti-bacterial effect on various microorganisms (plate medium), R. sec. In kind it is cell-based.
The subject of data set [15] is Gray mold (Botritis cinerea). Briefly: Anti-bacterial effect on various microorganisms (plate medium), B.c. In kind it is cell-based.
For data set [16], the system named is Rice bakanae disease (Giberella fujikuroi). Briefly: Anti-bacterial effect on various microorganisms (plate medium), G.f. In kind it is cell-based.
Data set [17] relates to Wheat Septoria nodorum blotch microorganism (Phaeosphaeria nodorum). Briefly: Anti-bacterial effect on various microorganisms (plate medium), P.n. In kind it is cell-based.
For data set [18], the system named is Rice blast (Pyricularia oryzae). In kind it is cell-based.
Data set [19] has as its system Swollen rice seedling (Rhizopus oryzae). Briefly: Anti-bacterial effect of V′ compounds on various microorganisms (plate medium), R.o. It counts as cell-based. The settings on record: 5 mg/L.
Data set [20] has as its system Rice blast (Pyricularia oryzae). It counts as cell-based. The conditions noted are these: 5 mg/L.
Data set [21] has as its system Snow mold of winter wheat (Microdochium nivale). Briefly: Anti-bacterial effect of V′ compounds on various microorganisms (plate medium), M.n. In kind it is cell-based. The conditions noted are these: 5 mg/L.
For data set [22], the system named is Barley leaf blotch (Rhynchosporium secalis). Briefly: Anti-bacterial effect of V′ compounds on various microorganisms (plate medium), R. sec. It counts as cell-based. The conditions noted are these: 5 mg/L.
Data set [23] has as its system Wheat leaf blight (Septoria tritici). Briefly: Anti-bacterial effect of V′ compounds on various microorganisms (plate medium), S.t. It counts as cell-based. The settings on record: 5 mg/L.
Data set [24] concerns G.g. Briefly: Anti-bacterial effect of V′ compounds on various microorganisms (plate medium), G.g. In kind it is cell-based. The conditions noted are these: 5 mg/L.
The test system of data set [25] is Barley stripe (Pyrenophora graminea). Briefly: Anti-bacterial effect of V′ compounds on various microorganisms (plate medium), P.g. In kind it is cell-based. The conditions noted are these: 5 mg/L.
Data set [26] deals with Wheat Septoria nodorum blotch microorganism (Phaeosphaeria nodorum). Briefly: Anti-bacterial effect of V′ compounds on various microorganisms (plate medium), P.n. In kind it is cell-based. The settings on record: 5 mg/L.

Read-outs that look alike come from different tables or passages of the source. Where only a bound is given, the exact number is not on record here.

In general, inhibition refers to how much of the control response was suppressed. `CC1(C)CC[C@H](Cc2ccc(Cl)cc2)[C@@]1(O)Cn1cncn1` (racemic) [Compound (1), reference compound]: the “damage (growth inhibition) index” value in data set [1] is given as 2 (Less than 60% but 40% or more). The inhibition at 1.25 µg/mL lay within 60 to 80% in data set [2] (Rhizopus arrhizus, 1.25 mg/L, read-out: Growth inhibition grade R.o); 20 to 40% in data set [3] (Microdochium nivale, 1.25 mg/L, read-out: Growth inhibition grade M.n); 60 to 80% in data set [4]. For the same molecule, the inhibition at 5 µg/mL in [2] (Rhizopus arrhizus, 5 mg/L, read-out: Growth inhibition grade R.o) was over 80%; in data set [3] (Microdochium nivale, 5 mg/L, read-out: Growth inhibition grade M.n), over 80%. In [5], the necrosis index is on record as 1 (1% or more but less than 5%). The “wheat brown rust protective value” in [6] stood at 95%. For the same molecule, the Protective value in data set [7] is on record as 3 (41 to 60).
`COC[C@]1(CCl)CC[C@@H](Cc2ccc(Cl)cc2)[C@]1(O)Cn1cncn1` (racemic) [Compound I-16a, (1RS,2RS,5SR)-5-(4-chlorobenzyl)-2-chloromethyl-2-methoxymethyl-1H-[1,2,4]triazole-1-ylmethylcyclopentanol]: the “Growth inhibition grade S.s” value in data set [8] (1.25 mg/L) and in [8] (5 mg/L) was 5 (% Mycerial growth inhibition of 80% or higher) throughout. In addition, the “Growth inhibition grade F.c” value in data set [9] (1.25 mg/L) and in data set [9] (5 mg/L) was 5 (% Mycerial growth inhibition of 80% or higher) throughout. For the same molecule, the “Growth inhibition grade A.m” value in [10] (1.25 mg/L) was 4 (% Mycerial growth inhibition of less than 80 to 60% or higher); in [10] (5 mg/L), 5 (% Mycerial growth inhibition of 80% or higher). The “Growth inhibition grade P.h” value in [11] (1.25 mg/L) is recorded as 4 (% Mycerial growth inhibition of less than 80 to 60% or higher); in [11] (5 mg/L), 5 (% Mycerial growth inhibition of 80% or higher). The “Growth inhibition grade R.o” value in [2] (1.25 mg/L) and in data set [2] (5 mg/L) was 5 (% Mycerial growth inhibition of 80% or higher) throughout. The “Growth inhibition grade F.g” value in data set [12] (1.25 mg/L) and in [12] (5 mg/L) was 5 (% Mycerial growth inhibition of 80% or higher) throughout. For the same molecule, the “Growth inhibition grade U.n” value in data set [13] (1.25 mg/L) and in data set [13] (5 mg/L) was 5 (% Mycerial growth inhibition of 80% or higher) each time. In addition, the “Growth inhibition grade R. sec” value in data set [14] (1.25 mg/L) and in data set [14] (5 mg/L) was 5 (% Mycerial growth inhibition of 80% or higher) each time. In addition, the “Growth inhibition grade M.n” value in data set [3] (1.25 mg/L) and in data set [3] (5 mg/L) was 5 (% Mycerial growth inhibition of 80% or higher) each time. In addition, the “Growth inhibition grade B.c” value in data set [15] (1.25 mg/L) and in [15] (5 mg/L) was 5 (% Mycerial growth inhibition of 80% or higher) each time. Also, in data set [4], the Growth inhibition grade was 5 (% Mycerial growth inhibition of 80% or higher). The “Growth inhibition grade G.f” value in data set [16] (1.25 mg/L) and in [16] (5 mg/L) was 5 (% Mycerial growth inhibition of 80% or higher) in each case. The “wheat brown rust protective value” in [6] is 100%. Moreover, in [7], the Protective value is 4 (61 to 80). In addition, the “Growth inhibition grade P.n” value in data set [17] (1.25 mg/L) and in data set [17] (5 mg/L) was 5 (% Mycerial growth inhibition of 80% or higher) each time. The “Growth inhibition grade P.o” value in [18] (1.25 mg/L) and in data set [18] (5 mg/L) was 5 (% Mycerial growth inhibition of 80% or higher) each time.
Take `CC1(C)OCC2(CCC(Cc3ccc(Cl)cc3)C2(O)Cn2cncn2)CO1` (stereo not drawn) [Compound V′-a-cis, 2-(4-chlorobenzyl)-8,8-dimethyl-1-[1,2,4]triazole-1-ylmethyl-7,9-dioxaspiro[4,5]decane-1-ol]: in data set [19], the “Anti-bacterial effect index against various microorganisms R.o” value is 5 (% Mycerial growth inhibition of 80% or higher). Further, in [20], the “Anti-bacterial effect index against various microorganisms P.o” value is 5 (% Mycerial growth inhibition of 80% or higher). The “Anti-bacterial effect index against various microorganisms M.n” value in data set [21] is 5 (% Mycerial growth inhibition of 80% or higher). Besides, the “Anti-bacterial effect index against various microorganisms R. sec” value in data set [22] is on record as 5 (% Mycerial growth inhibition of 80% or higher). Moreover, the inhibition at 1.25 µg/mL in data set [4] was over 80%. The “Anti-bacterial effect index against various microorganisms S.t” value in data set [23] is listed as 5 (% Mycerial growth inhibition of 80% or higher). In addition, the “Anti-bacterial effect index against various microorganisms G.g” value in data set [24] is on record as 5 (% Mycerial growth inhibition of 80% or higher). Also, in data set [25], the “Anti-bacterial effect index against various microorganisms P.g” value is on record as 5 (% Mycerial growth inhibition of 80% or higher). The “Anti-bacterial effect index against various microorganisms P.n” value in data set [26] is recorded as 5 (% Mycerial growth inhibition of 80% or higher).
Take `OC1(Cn2cncn2)C(Cc2ccc(Cl)cc2)CCC12COCOC2` (stereo not shown) [Compound V′-d, 2-(4-chlorobenzyl)-1-(1H-1,2,4-triazole-1-ylmethyl)-7,9-dioxaspiro[4,5]decane-1-ol]: in data set [19], the “Anti-bacterial effect index against various microorganisms R.o” value was 5 (% Mycerial growth inhibition of 80% or higher). For the same molecule, the “Anti-bacterial effect index against various microorganisms P.o” value in data set [20] is 5 (% Mycerial growth inhibition of 80% or higher). Further, the “Anti-bacterial effect index against various microorganisms M.n” value in data set [21] was 3 (% Mycerial growth inhibition of less than 60 to 40% or higher). In addition, the “Anti-bacterial effect index against various microorganisms R. sec” value in data set [22] was 5 (% Mycerial growth inhibition of 80% or higher). Also, the “Anti-bacterial effect index against various microorganisms S.t” value in [23] is 4 (% Mycerial growth inhibition of less than 80 to 60% or higher). The “Anti-bacterial effect index against various microorganisms G.g” value in [24] is listed as 5 (% Mycerial growth inhibition of 80% or higher). Moreover, the “wheat brown rust protective value” in [6] turned out to be 100%. For the same molecule, in [25], the “Anti-bacterial effect index against various microorganisms P.g” value was 5 (% Mycerial growth inhibition of 80% or higher). The Protective value in [7] is recorded as 4 (61 to 80). The “Anti-bacterial effect index against various microorganisms P.n” value in data set [26] is recorded as 5 (% Mycerial growth inhibition of 80% or higher).
For the molecule `CC1OCC2(CCC(Cc3ccc(Cl)cc3)C2(O)Cn2cncn2)CO1` (stereo not shown) [Compound V′-e, 2-(4-chlorobenzyl)-8-methyl-1-(1H-1,2,4-triazole-1-ylmethyl)-7,9-dioxaspiro[4,5]decane-1-ol], the “Anti-bacterial effect index against various microorganisms R.o” value in data set [19] was 5 (% Mycerial growth inhibition of 80% or higher). For the same molecule, the “Anti-bacterial effect index against various microorganisms P.o” value in data set [20] was 5 (% Mycerial growth inhibition of 80% or higher). The “Anti-bacterial effect index against various microorganisms M.n” value in [21] is listed as 5 (% Mycerial growth inhibition of 80% or higher). In data set [22], the “Anti-bacterial effect index against various microorganisms R. sec” value is reported as 5 (% Mycerial growth inhibition of 80% or higher). The inhibition at 1.25 µg/mL in data set [4] is over 80%. Also, in data set [23], the “Anti-bacterial effect index against various microorganisms S.t” value was 5 (% Mycerial growth inhibition of 80% or higher). The “Anti-bacterial effect index against various microorganisms G.g” value in data set [24] was 5 (% Mycerial growth inhibition of 80% or higher). Also, the “wheat brown rust protective value” in [6] is listed as 100%. Besides, the “Anti-bacterial effect index against various microorganisms P.g” value in data set [25] is listed as 5 (% Mycerial growth inhibition of 80% or higher). In data set [26], the “Anti-bacterial effect index against various microorganisms P.n” value is on record as 5 (% Mycerial growth inhibition of 80% or higher).
